Assay results published in ChEMBL document CHEMBL1201862, “PubChem BioAssay data set” (2004).
Values joined by “and” are separate entries in the source; they are usually repeats but may differ in a detail not shown here. Equal entries are not always repeated. Active and inactive are the calls of the source.

Experiments:
[1] = target: T1, Tyrosine-protein phosphatase non-receptor type 7 (Homo sapiens, UniProt P35236); assay type: functional
T1 sequence (P35236 whole entry): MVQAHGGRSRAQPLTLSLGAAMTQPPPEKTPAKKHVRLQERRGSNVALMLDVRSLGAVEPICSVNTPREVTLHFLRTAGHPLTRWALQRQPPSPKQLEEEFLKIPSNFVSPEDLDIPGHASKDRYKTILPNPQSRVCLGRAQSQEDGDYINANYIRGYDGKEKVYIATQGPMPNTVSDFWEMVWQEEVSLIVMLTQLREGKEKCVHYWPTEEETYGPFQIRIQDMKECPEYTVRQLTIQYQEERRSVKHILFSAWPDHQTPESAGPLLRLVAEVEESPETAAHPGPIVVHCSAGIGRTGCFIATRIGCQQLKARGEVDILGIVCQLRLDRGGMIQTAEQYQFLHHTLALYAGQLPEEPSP

[2] = target: T2, Dual specificity protein phosphatase 6 (Rattus norvegicus, UniProt Q64346); assay type: functional
T2 sequence (Q64346 whole entry): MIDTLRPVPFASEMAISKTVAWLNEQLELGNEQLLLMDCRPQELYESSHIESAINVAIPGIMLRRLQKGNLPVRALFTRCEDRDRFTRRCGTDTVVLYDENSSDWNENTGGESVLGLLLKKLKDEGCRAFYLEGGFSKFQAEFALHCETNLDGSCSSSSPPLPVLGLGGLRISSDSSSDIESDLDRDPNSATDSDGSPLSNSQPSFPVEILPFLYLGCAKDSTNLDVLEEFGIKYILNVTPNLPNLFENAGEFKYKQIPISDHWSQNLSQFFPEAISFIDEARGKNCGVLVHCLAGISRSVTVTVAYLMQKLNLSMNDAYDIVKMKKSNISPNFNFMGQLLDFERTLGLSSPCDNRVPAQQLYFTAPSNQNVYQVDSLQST

[3] = target: Glyceraldehyde-3-phosphate dehydrogenase (Homo sapiens, UniProt P04406)
[4] = target: T2, Dual specificity protein phosphatase 6
Vero = test: Vero E6 cell cytotoxicity, dose response, cytotoxicity control (AID 540298); assay type: functional; conditions: Chlorocebus sabaeus
MDCK [5] = test: antiviral activity against H1N1 influenza, dose response, cell-based, strain KY136 (AID 540257); assay type: functional; conditions: Canis lupus familiaris
Nonstructural protein 1 = Nonstructural protein 1 (Influenza A virus, UniProt Q194T2); assay type: functional, Influenza A virus (A/California/07/2009(H1N1))
MDCK [6] = test: MDCK cell cytotoxicity, dose response, cytotoxicity control (AID 540296); assay type: functional; conditions: Canis lupus familiaris
[7] = target: Voltage-gated inwardly rectifying potassium channel KCNH2 (Homo sapiens, UniProt Q12809); conditions: Potency;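 also: confirmatory quantitative high-throughput screen measuring inhibition of hERG channel activity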
[8] = target: T3, Endoribonuclease toxin MazF (Escherichia coli K-12, UniProt P0AE70); test: fluorescent RNA oligo signal without MazF, dose response, counter-screen for MazEF activator project, biochemical, fluorescence, single-stranded RNase substrate (AID 588502); assay type: functional
T3 sequence (P0AE70 whole entry): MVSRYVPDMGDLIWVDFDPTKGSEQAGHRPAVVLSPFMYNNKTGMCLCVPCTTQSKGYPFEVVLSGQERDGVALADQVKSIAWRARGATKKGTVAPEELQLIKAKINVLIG

[9] = target: T3, Endoribonuclease toxin MazF; test: MazF toxin RNase activators, dose response, biochemical, fluorescence, single-stranded RNA substrate, uHTS hits (AID 588481); assay type: functional
[10] = target: T3, Endoribonuclease toxin MazF; test: SAR analysis of small molecule activators of the MazEF TA System via a fluorescence-based single-stranded RNase assay counterscreen. [Related pubchem assays (depositor defined):AID504720, AID504743]; assay type: functional
[11] = target: T3, Endoribonuclease toxin MazF; test: MazF endoribonuclease activators, SAR follow-up, biochemical, fluorescence, single-stranded RNA substrate (AID 588603); assay type: functional
MEF = test: SAR analysis of small molecule cytotoxicity of MazEF TA System activators in embryonic fibroblast (MEF) cells. [Related pubchem assays (depositor defined):AID504720, AID504743]; assay type: functional; conditions: Mus musculus
[12] = target: T4, High affinity choline transporter 1 (Homo sapiens, UniProt Q9GZV3); test: CHT inhibitors, dose response, cell-based, 5-point CRC, membrane potential dye (AID 504840); assay type: functional
T4 sequence (Q9GZV3 whole entry): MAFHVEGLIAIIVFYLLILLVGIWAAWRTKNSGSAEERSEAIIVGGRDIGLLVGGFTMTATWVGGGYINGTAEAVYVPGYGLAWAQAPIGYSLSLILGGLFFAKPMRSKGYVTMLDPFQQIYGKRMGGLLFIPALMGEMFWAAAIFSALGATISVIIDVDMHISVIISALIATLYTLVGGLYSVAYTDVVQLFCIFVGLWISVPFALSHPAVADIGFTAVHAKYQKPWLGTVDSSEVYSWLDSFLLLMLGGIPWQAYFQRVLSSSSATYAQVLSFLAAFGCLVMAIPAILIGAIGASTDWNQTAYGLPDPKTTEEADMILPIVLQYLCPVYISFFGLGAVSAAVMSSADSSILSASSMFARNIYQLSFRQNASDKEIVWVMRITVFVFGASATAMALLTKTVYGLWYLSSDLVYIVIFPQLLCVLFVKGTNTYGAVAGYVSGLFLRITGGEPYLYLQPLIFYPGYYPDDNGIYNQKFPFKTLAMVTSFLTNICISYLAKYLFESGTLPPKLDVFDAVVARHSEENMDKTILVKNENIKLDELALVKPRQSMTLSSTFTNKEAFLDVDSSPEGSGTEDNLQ

HEK293 [13] = test: cells; conditions: Homo sapiens
[14] = Luminescent dose response cell-based high throughput screening assay for inhibitors of the Janus kinase 2 mutant JAK2V617F. [Related pubchem assays: 1446 (Primary screen.), 1521 (Confirmation assay.), 1486 (Counter screen.)]; assay type: functional
HEK293 [15] = test: cells; conditions: Homo sapiens; remark: listed apart in the source
[16] = target: Delta-type opioid receptor (Homo sapiens, UniProt P41143); test: Counterscreen for agonists of heterodimerization of the mu 1 (OPRM1) and delta 1 (OPRD1) opioid receptors: Luminescence-based cell-based high throughput dose response assay to identify agonists of OPRD1 homodimerization. [Related pubchem assays (depositor defined):AID504326, AID504355, AID504692, AID504904, AID504905]; assay type: functional
Mu-type opioid receptor = Mu-type opioid receptor (Homo sapiens, UniProt P35372); test: Counterscreen for agonists of heterodimerization of the mu 1 (OPRM1) and delta 1 (OPRD1) opioid receptors: Luminescence-based cell-based high throughput dose response assay to identify agonists of OPRM1 homodimerization.; assay type: functional;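 also: U2OS cells expressing OPRM1 and beta-arrestin as split beta-galactosidase partners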
[17] = target: 5-hydroxytryptamine receptor 5A (Homo sapiens, UniProt P47898); test: Counterscreen for agonists of OPRM1-OPRD1 heterodimerization: luminescence-based cell-based high throughput dose response assay to identify agonists of 5-hydroxytryptamine (serotonin) 5A receptor (HTR5A). [Related pubchem assays (depositor defined):AID504326, AID504355, AID504692, AID504904, AID504905]; assay type: functional
NIH3T3 = test: cytotoxicity in NIH-3T3 fibroblasts, dose response, cytotoxicity control for antifungal drug resistance project, cell-based, Alamar Blue, fluconazole, dry powder (AID 488809); assay type: functional; conditions: Mus musculus
[18] = target: T5, Tyrosyl-DNA phosphodiesterase 2 (Homo sapiens, UniProt O95551); test: human TDP2 enzyme inhibitors, dose response, biochemical, epi absorbance, IC50 (AID 743297)
T5 sequence (O95551 whole entry): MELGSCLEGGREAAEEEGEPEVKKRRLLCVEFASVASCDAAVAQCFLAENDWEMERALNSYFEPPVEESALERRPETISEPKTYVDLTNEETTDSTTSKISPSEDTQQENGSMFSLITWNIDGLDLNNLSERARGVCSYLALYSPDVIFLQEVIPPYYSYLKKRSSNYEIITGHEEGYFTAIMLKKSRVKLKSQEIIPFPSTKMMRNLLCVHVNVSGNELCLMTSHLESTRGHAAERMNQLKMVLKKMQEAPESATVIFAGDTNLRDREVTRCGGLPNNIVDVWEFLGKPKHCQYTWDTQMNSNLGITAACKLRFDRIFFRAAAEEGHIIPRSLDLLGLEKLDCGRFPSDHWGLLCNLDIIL

[19] = target: T6, Carboxy-terminal domain RNA polymerase II polypeptide A small phosphatase 1 (Homo sapiens, UniProt Q9GZU7); test: inhibitors of CTDSP1, concentration-response testing, biochemical assay, absorbance-based, actives from ultra-high-throughput screening (AID 540297); assay type: functional
T6 sequence (Q9GZU7 whole entry): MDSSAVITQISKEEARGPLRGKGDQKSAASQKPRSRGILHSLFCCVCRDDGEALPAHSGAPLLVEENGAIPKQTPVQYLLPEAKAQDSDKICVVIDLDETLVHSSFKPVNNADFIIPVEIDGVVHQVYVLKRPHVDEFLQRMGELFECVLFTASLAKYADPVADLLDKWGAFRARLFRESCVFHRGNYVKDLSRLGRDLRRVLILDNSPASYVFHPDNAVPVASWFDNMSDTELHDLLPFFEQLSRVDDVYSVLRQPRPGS

Hexokinase HKDC1 = Hexokinase HKDC1 (Homo sapiens, UniProt Q2TB90); test: HKDC1 hexokinase inhibitors, dose response, biochemical, W721R variant (AID 504729); assay type: functional
[20] = target: Beta-adrenergic receptor kinase 1 (Homo sapiens, UniProt P25098); test: aptamer displacement from bead-bound GRK2 – biochemical, cherry pick 1, bead flow cytometry, dose response (AID 504500)
Cytochrome P450 1A2 = target: T7, Cytochrome P450 1A2 (Homo sapiens, UniProt P05177);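 also: PubChem cytochrome P450 panel assay, CYP1A2 panel member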
T7 sequence (P05177 whole entry): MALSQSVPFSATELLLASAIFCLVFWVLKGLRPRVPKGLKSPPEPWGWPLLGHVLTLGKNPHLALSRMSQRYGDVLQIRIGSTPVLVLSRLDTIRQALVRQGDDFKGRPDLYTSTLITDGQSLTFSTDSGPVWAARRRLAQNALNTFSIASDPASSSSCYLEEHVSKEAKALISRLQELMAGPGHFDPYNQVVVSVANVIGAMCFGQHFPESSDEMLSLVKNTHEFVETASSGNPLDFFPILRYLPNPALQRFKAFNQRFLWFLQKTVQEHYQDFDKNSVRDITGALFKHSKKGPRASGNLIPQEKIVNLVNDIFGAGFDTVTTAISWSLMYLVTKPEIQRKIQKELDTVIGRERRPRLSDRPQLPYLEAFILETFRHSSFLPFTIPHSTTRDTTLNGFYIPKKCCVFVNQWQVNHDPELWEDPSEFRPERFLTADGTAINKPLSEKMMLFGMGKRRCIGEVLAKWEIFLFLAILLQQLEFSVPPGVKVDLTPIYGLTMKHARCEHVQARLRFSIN

Cytochrome P450 2D6 = Cytochrome P450 2D6 (Homo sapiens, UniProt P10635);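 also: CYP2D6 member of a cytochrome P450 panel assay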
Cytochrome P450 2D6, sequence (P10635 whole entry): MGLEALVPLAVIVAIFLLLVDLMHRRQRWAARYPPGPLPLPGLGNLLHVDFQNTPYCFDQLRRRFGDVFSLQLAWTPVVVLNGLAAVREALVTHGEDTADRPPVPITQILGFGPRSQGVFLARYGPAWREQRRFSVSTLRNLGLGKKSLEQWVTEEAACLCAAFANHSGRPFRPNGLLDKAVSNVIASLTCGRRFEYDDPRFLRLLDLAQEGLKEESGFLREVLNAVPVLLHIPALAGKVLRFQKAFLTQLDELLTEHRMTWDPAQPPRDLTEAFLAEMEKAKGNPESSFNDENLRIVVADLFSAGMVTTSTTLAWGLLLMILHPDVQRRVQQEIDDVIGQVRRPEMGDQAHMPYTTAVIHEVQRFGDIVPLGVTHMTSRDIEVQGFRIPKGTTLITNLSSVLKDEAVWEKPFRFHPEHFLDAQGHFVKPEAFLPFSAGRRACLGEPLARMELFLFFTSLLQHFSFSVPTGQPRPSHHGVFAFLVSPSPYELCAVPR

Nonstructural protein 1, sequence (Q194T2 whole entry): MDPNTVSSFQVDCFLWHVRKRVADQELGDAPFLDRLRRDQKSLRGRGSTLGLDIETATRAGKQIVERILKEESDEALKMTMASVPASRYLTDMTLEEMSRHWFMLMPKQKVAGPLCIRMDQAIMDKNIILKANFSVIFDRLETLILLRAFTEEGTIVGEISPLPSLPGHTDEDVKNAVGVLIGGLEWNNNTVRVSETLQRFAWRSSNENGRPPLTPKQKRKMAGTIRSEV
Beta-adrenergic receptor kinase 1, sequence (P25098 whole entry): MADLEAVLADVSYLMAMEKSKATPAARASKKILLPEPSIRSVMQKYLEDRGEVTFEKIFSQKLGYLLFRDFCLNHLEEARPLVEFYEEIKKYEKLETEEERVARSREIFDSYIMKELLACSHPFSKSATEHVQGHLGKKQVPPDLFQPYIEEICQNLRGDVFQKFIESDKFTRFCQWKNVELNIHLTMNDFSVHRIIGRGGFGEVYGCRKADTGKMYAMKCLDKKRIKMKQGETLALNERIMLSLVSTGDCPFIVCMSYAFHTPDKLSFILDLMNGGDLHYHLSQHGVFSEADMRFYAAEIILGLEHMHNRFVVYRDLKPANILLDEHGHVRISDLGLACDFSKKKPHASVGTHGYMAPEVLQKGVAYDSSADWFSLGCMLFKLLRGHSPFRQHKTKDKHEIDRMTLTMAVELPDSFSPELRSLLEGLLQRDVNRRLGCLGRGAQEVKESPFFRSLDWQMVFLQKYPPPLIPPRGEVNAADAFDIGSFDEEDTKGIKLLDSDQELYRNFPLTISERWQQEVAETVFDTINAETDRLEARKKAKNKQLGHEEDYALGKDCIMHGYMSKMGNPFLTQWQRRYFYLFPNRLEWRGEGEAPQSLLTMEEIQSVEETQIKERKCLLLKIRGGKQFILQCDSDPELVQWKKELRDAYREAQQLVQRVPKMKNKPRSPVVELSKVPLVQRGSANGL
Hexokinase HKDC1, sequence (Q2TB90 whole entry): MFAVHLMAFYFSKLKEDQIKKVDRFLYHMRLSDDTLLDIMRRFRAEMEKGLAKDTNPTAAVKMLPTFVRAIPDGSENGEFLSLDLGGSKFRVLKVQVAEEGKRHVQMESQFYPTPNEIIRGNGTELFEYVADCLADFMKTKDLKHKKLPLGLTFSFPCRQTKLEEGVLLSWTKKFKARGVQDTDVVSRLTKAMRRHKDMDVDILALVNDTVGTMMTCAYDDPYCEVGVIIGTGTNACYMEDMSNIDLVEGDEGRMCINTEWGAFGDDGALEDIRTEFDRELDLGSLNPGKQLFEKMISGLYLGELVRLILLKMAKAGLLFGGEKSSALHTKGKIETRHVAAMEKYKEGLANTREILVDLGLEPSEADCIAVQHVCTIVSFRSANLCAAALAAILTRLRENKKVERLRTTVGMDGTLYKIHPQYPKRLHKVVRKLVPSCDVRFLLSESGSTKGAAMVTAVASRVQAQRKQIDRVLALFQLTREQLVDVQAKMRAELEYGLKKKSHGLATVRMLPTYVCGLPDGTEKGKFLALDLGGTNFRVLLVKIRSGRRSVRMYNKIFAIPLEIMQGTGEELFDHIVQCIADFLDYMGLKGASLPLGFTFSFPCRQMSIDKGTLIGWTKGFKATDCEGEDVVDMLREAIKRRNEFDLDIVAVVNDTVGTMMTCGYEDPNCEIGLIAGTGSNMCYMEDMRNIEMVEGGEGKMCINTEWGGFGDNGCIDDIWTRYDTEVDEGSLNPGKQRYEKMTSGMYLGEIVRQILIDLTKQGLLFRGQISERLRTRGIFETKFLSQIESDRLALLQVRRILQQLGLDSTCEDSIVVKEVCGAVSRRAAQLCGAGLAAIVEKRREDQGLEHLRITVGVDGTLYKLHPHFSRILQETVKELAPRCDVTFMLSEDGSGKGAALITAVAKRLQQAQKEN
Delta-type opioid receptor, sequence (P41143 whole entry): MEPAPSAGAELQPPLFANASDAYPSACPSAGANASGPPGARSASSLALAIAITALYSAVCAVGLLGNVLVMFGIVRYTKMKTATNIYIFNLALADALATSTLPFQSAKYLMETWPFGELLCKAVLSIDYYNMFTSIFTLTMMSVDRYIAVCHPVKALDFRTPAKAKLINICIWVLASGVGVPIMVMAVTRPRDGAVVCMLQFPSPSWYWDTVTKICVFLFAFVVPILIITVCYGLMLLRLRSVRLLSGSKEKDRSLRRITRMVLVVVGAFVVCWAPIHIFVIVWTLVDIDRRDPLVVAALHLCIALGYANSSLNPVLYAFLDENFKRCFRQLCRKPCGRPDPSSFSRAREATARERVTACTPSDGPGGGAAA
Voltage-gated inwardly rectifying potassium channel KCNH2, sequence (Q12809 whole entry): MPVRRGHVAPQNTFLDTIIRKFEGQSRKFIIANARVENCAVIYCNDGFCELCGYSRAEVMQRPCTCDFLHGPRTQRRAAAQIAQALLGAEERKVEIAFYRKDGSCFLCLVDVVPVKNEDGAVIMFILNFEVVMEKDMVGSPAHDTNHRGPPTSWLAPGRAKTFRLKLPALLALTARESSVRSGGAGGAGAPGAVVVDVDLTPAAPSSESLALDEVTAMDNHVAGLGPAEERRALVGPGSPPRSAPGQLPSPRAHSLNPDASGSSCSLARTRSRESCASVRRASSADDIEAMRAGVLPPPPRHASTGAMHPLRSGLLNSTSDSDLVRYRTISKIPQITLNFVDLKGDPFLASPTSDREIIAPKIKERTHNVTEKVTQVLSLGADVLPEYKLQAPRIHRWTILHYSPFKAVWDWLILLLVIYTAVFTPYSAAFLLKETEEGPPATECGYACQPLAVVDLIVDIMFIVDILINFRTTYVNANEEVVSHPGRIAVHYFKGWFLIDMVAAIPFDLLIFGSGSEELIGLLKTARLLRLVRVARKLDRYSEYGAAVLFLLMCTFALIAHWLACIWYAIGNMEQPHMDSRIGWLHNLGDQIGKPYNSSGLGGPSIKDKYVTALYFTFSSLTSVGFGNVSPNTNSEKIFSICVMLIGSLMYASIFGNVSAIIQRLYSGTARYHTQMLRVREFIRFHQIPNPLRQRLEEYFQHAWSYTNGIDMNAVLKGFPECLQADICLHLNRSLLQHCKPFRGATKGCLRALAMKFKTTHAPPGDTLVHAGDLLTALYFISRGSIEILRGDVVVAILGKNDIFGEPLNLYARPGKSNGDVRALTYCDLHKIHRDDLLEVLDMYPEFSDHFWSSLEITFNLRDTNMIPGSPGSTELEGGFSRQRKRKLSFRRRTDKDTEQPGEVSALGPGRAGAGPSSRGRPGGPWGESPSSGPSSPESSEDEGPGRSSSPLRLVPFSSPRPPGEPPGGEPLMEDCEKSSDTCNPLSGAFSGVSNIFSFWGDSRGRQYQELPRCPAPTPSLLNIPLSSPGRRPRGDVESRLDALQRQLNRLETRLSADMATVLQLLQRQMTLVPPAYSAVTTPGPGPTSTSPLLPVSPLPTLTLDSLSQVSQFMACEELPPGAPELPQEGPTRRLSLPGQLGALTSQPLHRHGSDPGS
Mu-type opioid receptor, sequence (P35372 whole entry): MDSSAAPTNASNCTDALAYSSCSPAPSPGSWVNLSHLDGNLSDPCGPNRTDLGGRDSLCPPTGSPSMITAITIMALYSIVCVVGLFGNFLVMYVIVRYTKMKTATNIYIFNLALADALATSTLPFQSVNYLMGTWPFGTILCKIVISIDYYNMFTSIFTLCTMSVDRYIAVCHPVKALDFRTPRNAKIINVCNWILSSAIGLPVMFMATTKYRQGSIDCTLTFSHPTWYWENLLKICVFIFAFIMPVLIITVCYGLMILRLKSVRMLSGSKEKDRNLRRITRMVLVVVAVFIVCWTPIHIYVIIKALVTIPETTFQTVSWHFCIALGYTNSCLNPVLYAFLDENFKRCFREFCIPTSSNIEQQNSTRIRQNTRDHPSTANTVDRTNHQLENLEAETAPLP
5-hydroxytryptamine receptor 5A, sequence (P47898 whole entry): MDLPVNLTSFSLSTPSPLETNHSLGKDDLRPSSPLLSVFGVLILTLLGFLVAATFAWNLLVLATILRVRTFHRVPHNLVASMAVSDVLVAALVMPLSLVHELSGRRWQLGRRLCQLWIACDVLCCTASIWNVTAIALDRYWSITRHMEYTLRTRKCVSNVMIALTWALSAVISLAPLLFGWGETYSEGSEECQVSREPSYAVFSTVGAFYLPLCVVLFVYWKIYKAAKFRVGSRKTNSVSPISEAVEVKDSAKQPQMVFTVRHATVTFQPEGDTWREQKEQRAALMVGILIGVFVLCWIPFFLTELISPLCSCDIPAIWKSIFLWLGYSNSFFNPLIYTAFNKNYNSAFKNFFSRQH
Glyceraldehyde-3-phosphate dehydrogenase, sequence (P04406 whole entry): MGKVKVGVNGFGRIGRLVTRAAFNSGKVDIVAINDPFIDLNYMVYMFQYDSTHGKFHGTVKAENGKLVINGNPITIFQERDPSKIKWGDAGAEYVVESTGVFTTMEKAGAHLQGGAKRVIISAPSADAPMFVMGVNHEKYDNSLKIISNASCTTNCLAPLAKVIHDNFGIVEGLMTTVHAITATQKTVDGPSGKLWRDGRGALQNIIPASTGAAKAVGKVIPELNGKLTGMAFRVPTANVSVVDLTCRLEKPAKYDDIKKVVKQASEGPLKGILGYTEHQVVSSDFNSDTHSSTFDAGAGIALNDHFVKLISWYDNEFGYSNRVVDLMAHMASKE

Structure (SMILES): C#CCCCCCCCCCCCCCCCCCC
- IC50 [1]: > 100 µM (not active)
- IC50 [2]: > 100 µM (inactive)
- IC50 [3]: > 100 µM (not active)
- IC50 [4]: > 100 µM (inactive)

Structure (SMILES): Fc1ccc(-[n+]2nc(Nc3ccccc3)sc2-c2c(Cl)cccc2Cl)cc1
- CC50 (Vero): 23.2 µM (active)
- IC50 (MDCK [5]): > 100 µM (active)
- IC50 (Nonstructural protein 1): 51.2 µM (active)
- CC50 (MDCK [6]): 11.6 µM (active)

Structure (SMILES): Brc1ccc(-c2ccccc2)cc1
- AC50 [7]: 39.8 µM (inconclusive)

Structure (SMILES): O=C(C1=NN[C@@H]2C(=O)N(c3cccc(F)c3)C(=O)[C@H]12)c1ccc2ccccc2n1
- EC50 [8]: > 99 µM (inactive)
- EC50 [9]: 20.5 µM (inactive)
- EC50 [10]: > 99 µM (inactive)
- EC50 [11]: 24.4 µM (inactive)
- CC50 (MEF): > 99 µM (inactive)

Structure (SMILES): COc1ccc(C2=Nn3c(nnc3C3CCCCC3)SC2)cc1OC
- IC50 [12]: 1.74 µM (active)
- EC50 (HEK293 [13]): > 59.6 µM (inactive)
- IC50 [14]: 3.41 µM (active)
- EC50 (HEK293 [15]): > 59.6 µM (inactive)

Structure (SMILES): Cc1ccc(C)c(-n2cc(CNC(C)Cn3cncn3)c(-c3ccccc3)n2)c1 (centres undefined)
- EC50 [16]: > 92.5 µM (inactive)
- EC50 (Mu-type opioid receptor): > 92.5 µM (inactive)
- EC50 [17]: > 92.5 µM (inactive)

Structure (SMILES): CCOC(=O)c1nn(Cc2ccc(Cl)cc2)c2ccccc12
- AC50 (NIH3T3): 39 µM (active)

Structure (SMILES): O=C(O)c1ccccc1-c1c2cc(I)c(=O)c(I)c-2oc2c(I)c(O)c(I)cc12
- IC50 [18]: > 14.3 µM (inactive) and 35.7 µM (inactive)
- IC50 [19]: 1.89 µM (active)
- IC50 (Hexokinase HKDC1): 14.4 µM (active)
- EC50 [20]: 14.7 µM (inactive)
- IC50 (Nonstructural protein 1): 19.4 µM (active)

Structure (SMILES): CS(=O)(=O)O.Cc1ccc(N(CC2=NCCN2)c2cccc(O)c2)cc1 [PHENTOLAMINE MESYLATE]
- AC50 (Cytochrome P450 1A2): inactive
- AC50 (Cytochrome P450 2D6): 3.16 µM (active)
